We go through three compounds from ChEMBL document CHEMBL1133836, “Anchoring and bola cationic amphiphiles for nucleotide delivery. Effects of orientation and extension of hydrophobic regions” (2001).

Type in all cases: functional, Mus musculus
Assay [1] concerns NIH3T3. In words: Transfection activity of the liposomes derived from compound determined by luciferase assay at 12.5 nmol.
The subject of assay [2] is NIH3T3. In words: Cytotoxicity expressed as percent viability of liposome-plasmid DNA complex at 12.5 nmol.
Assay [3] has as its system NIH3T3. In words: Transfection activity of the liposomes derived from compound determined by luciferase assay at 25 nmol.
The subject of assay [4] is NIH3T3. In words: Cytotoxicity expressed as percent viability of liposome-plasmid DNA complex at 100 nmol.
For assay [5], the system named is NIH3T3. Put plainly: Cytotoxicity expressed as percent viability of liposome-plasmid DNA complex at 50 nmol.
Assay [6] deals with NIH3T3. Put plainly: Cytotoxicity expressed as percent viability of liposome-plasmid DNA complex at 25 nmol.
The test system of assay [7] is NIH3T3. Put plainly: Cytotoxicity expressed as percent viability of liposome-plasmid DNA complex.

SMILES strings stand for the structures.

Consider `C[C@H](CCC(=O)NCCCNCCCCN)C1CCC2C3CCC4CC(OC/C=C/CO[C@@H]5CC[C@]6(C)C(CCC7C6CC[C@]6(C)C7CCC6[C@H](C)CCC(=O)NCCCNCCCCN)C5)CC[C@]4(C)C3CC[C@@]21C` (stereo partly drawn), for which, in the assay with NIH3T3 [1], the Transfection activity is given as 1000000 RLU (mg of protein)-1.

`C[C@H](CCC(=O)NCCCNCCCCN)C1CCC2C3CCC4CC(OC/C=C/CO[C@H]5CC[C@]6(C)C(CCC7C6CC[C@]6(C)C7CCC6[C@H](C)CCC(=O)NCCCNCCCCN)C5)CC[C@]4(C)C3CC[C@@]21C` (stereo partly drawn): the Viability in the assay with NIH3T3 [2] is listed as 95%; in the assay with NIH3T3 [4], 5%; with NIH3T3 [5], 40%; with NIH3T3 [6], 75%. In addition, the figures for the Transfection activity with NIH3T3 [3] and in the assay with NIH3T3 [1] were 2000000 RLU (mg of protein)-1 and 1500000 RLU (mg of protein)-1, respectively.

As to `CC(C)CCC[C@@H](C)C1CCC2C3CC=C4CC(OC(=O)NCCN(C)C)CCC4(C)C3CCC21C` (stereo partly drawn), the Viability with NIH3T3 [7] was 95%.
